Measured values published in ChEMBL document CHEMBL4043214, “Design, synthesis, and SAR study of 3-(benzo[d][1,3]dioxol-5-yl)-N-benzylpropanamide as novel potent synergists against fluconazole-resistant Candida albicans” (2017).

Legend:
Type in all cases: functional
Candida albicans [1] = assay: Anti-fungal activity against fluconazole-resistant Candida albicans isolate 100 by microbroth dilution method
Candida albicans [2] = assay: Anti-fungal activity against fluconazole-resistant Candida albicans isolate 103 by microbroth dilution method
Candida albicans [3] = assay: Synergistic anti-fungal activity against fluconazole-resistant Candida albicans isolate 100 in presence of fluconazole by two-fold dilution method
Candida albicans [4] = assay: Synergistic anti-fungal activity against fluconazole-resistant Candida albicans isolate 103 in presence of fluconazole by two-fold dilution method
Candida albicans [5] = assay: Potentiation of fluconazole-induced anti-fungal activity against fluconazole-resistant Candida albicans isolate 103 by two-fold dilution method
Candida albicans [6] = assay: Potentiation of fluconazole-induced anti-fungal activity against fluconazole-resistant Candida albicans isolate 100 by two-fold dilution method
Candida albicans [7] = assay: Potentiation of fluconazole-induced anti-fungal activity against fluconazole-resistant Candida albicans isolate 103 assessed as fluconazole MIC80 at 4 ug/ml by checkerboard microdilution assay
Candida albicans [8] = assay: Potentiation of fluconazole-induced anti-fungal activity against fluconazole-resistant Candida albicans isolate 103 assessed as fluconazole MIC80 at 8 ug/ml by checkerboard microdilution assay
Candida albicans [9] = assay: Potentiation of fluconazole-induced anti-fungal activity against fluconazole-resistant Candida albicans isolate 103 assessed as fluconazole MIC80 at 2 ug/ml by checkerboard microdilution assay
Candida albicans [10] = assay: Potentiation of fluconazole-induced anti-fungal activity against fluconazole-resistant Candida albicans isolate 103 assessed as fluconazole MIC80 at 1 ug/ml by checkerboard microdilution assay
Candida albicans [11] = assay: Potentiation of fluconazole-induced anti-fungal activity against fluconazole-resistant Candida albicans isolate 100 assessed as fluconazole MIC80 at 8 ug/ml by checkerboard microdilution assay
Candida albicans [12] = assay: Potentiation of fluconazole-induced anti-fungal activity against fluconazole-resistant Candida albicans isolate 100 assessed as fluconazole MIC80 at 4 ug/ml by checkerboard microdilution assay
Candida albicans [13] = assay: Potentiation of fluconazole-induced anti-fungal activity against fluconazole-resistant Candida albicans isolate 100 assessed as fluconazole MIC80 at 2 ug/ml by checkerboard microdilution assay
Candida albicans [14] = assay: Potentiation of fluconazole-induced anti-fungal activity against fluconazole-resistant Candida albicans isolate 100 assessed as fluconazole MIC80 at 1 ug/ml by checkerboard microdilution assay
Candida albicans [15] = assay: Potentiation of fluconazole-induced anti-fungal activity against fluconazole-resistant Candida albicans isolate 103 at 8 ug/ml by checkerboard microdilution assay
Candida albicans [16] = assay: Potentiation of fluconazole-induced anti-fungal activity against fluconazole-resistant Candida albicans isolate 103 at 4 ug/ml by checkerboard microdilution assay
Candida albicans [17] = assay: Potentiation of fluconazole-induced anti-fungal activity against fluconazole-resistant Candida albicans isolate 103 at 2 ug/ml by checkerboard microdilution assay
Candida albicans [18] = assay: Potentiation of fluconazole-induced anti-fungal activity against fluconazole-resistant Candida albicans isolate 103 at 1 ug/ml by checkerboard microdilution assay
Candida albicans [19] = assay: Potentiation of fluconazole-induced anti-fungal activity against fluconazole-resistant Candida albicans isolate 100 at 8 ug/ml by checkerboard microdilution assay
Candida albicans [20] = assay: Potentiation of fluconazole-induced anti-fungal activity against fluconazole-resistant Candida albicans isolate 100 at 4 ug/ml by checkerboard microdilution assay
Candida albicans [21] = assay: Potentiation of fluconazole-induced anti-fungal activity against fluconazole-resistant Candida albicans isolate 100 at 2 ug/ml by checkerboard microdilution assay
Candida albicans [22] = assay: Potentiation of fluconazole-induced anti-fungal activity against fluconazole-resistant Candida albicans isolate 100 at 1 ug/ml by checkerboard microdilution assay

Row | SMILES | MIC80 (Candida albicans [1]) | MIC80 (Candida albicans [2]) | MIC80 (Candida albicans [3]) | MIC80 (Candida albicans [4]) | fractional inhibitory concentration index (FICI) (Candida albicans [5]) | fractional inhibitory concentration index (FICI) (Candida albicans [6]) | other results
1 | O=C(CCc1ccc2c(c1)OCO2)NCc1ccccc1-c1ccc(F)cc1 | > 64 µg/mL | > 64 µg/mL | 0.5 µg/mL | 0.5 µg/mL | 0.066 | 0.066 | 
2 | O=C(CCc1ccc2c(c1)OCO2)NCc1ccc(-c2cccc(F)c2)cc1 | > 64 µg/mL | > 64 µg/mL | 0.25 µg/mL | 0.25 µg/mL | 0.064 | 0.064 | 
3 | Cc1cccc(-c2ccc(CNC(=O)CCc3ccc4c(c3)OCO4)cc2)c1 | > 64 µg/mL | > 64 µg/mL | 0.5 µg/mL | 1 µg/mL | 0.07 | 0.066 | 
4 | O=C(CCc1ccc2c(c1)OCO2)NCc1ccc(Br)cc1 | > 64 µg/mL | > 64 µg/mL | 0.5 µg/mL | 1 µg/mL | 0.07 | 0.066 | 
5 | O=C(CCc1ccc2c(c1)OCO2)NCc1ccc(-c2ccc(F)cc2F)cc1 | > 64 µg/mL | > 64 µg/mL | 0.063 µg/mL | 0.125 µg/mL | 0.063 | 0.063 | 
6 | O=C(CCc1ccc2c(c1)OCO2)NCc1ccc(-c2cccs2)cc1 | > 64 µg/mL | > 64 µg/mL | 0.063 µg/mL | 0.125 µg/mL | 0.063 | 0.063 | 
7 | Cc1ccc(-c2ccc(CNC(=O)CCc3ccc4c(c3)OCO4)cc2)cc1 | > 64 µg/mL | > 64 µg/mL | 0.063 µg/mL | 0.063 µg/mL | 0.063 | 0.063 | MIC80 (Candida albicans [7]): 1 µg/mL; MIC80 (Candida albicans [8]): 0.063 µg/mL; MIC80 (Candida albicans [9]): 1 µg/mL; MIC80 (Candida albicans [10]): 2 µg/mL; MIC80 (Candida albicans [11]): 0.063 µg/mL; MIC80 (Candida albicans [12]): 0.5 µg/mL; MIC80 (Candida albicans [13]): 1 µg/mL; MIC80 (Candida albicans [14]): 2 µg/mL; fractional inhibitory concentration index (FICI) (Candida albicans [15]): 0.063; fractional inhibitory concentration index (FICI) (Candida albicans [16]): 0.039; fractional inhibitory concentration index (FICI) (Candida albicans [17]): 0.023; fractional inhibitory concentration index (FICI) (Candida albicans [18]): 0.023; fractional inhibitory concentration index (FICI) (Candida albicans [19]): 0.063; fractional inhibitory concentration index (FICI) (Candida albicans [20]): 0.035; fractional inhibitory concentration index (FICI) (Candida albicans [21]): 0.023; fractional inhibitory concentration index (FICI) (Candida albicans [22]): 0.023
8 | O=C(CCc1ccc2c(c1)OCO2)NCc1cccc(-c2ccc(F)cc2)c1 | > 64 µg/mL | > 64 µg/mL | 0.5 µg/mL | 1 µg/mL | 0.07 | 0.066 | 
9 | O=C(Cc1ccccc1F)NCCc1ccc2c(c1)OCO2 | > 64 µg/mL | > 64 µg/mL | 1 µg/mL | 1 µg/mL | 0.07 | 0.07 | 
10 | Cc1ccccc1CNC(=O)CCc1ccc2c(c1)OCO2 | > 64 µg/mL | > 64 µg/mL | 0.25 µg/mL | 0.5 µg/mL | 0.066 | 0.064 | 
11 | N#Cc1ccc(-c2ccc(CNC(=O)CCc3ccc4c(c3)OCO4)cc2)cc1 | > 64 µg/mL | > 64 µg/mL | 8 µg/mL | 8 µg/mL | 0.125 | 0.125 | 
12 | COc1ccc(-c2ccc(CNC(=O)CCc3ccc4c(c3)OCO4)cc2)cc1 | > 64 µg/mL | > 64 µg/mL | 0.25 µg/mL | 0.5 µg/mL | 0.066 | 0.064 | 
13 | O=C(CCc1ccc2c(c1)OCO2)NCc1ccccc1F | > 64 µg/mL | > 64 µg/mL | 0.5 µg/mL | 0.5 µg/mL | 0.066 | 0.066 | 
